{"source": "the kinase profiling compilation of Christmann-Franck et al. (2016)", "experiment_in_all_cases": "KINOMEscan competition binding", "conditions_in_all_cases": "compound 0.5 µM", "key": {"[1]": {"target": "MLTK (human) (UniProt Q9NYL2)"}, "[2]": {"target": "FGFR1 (human) (UniProt P11362)"}, "[3]": {"target": "MAPK10 (human) (UniProt P53779)"}, "[4]": {"target": "CDK2 (human) (UniProt P24941)"}, "[5]": {"target": "EPHB3 (human) (UniProt P54753)", "sequence (P54753 whole entry, looked up)": "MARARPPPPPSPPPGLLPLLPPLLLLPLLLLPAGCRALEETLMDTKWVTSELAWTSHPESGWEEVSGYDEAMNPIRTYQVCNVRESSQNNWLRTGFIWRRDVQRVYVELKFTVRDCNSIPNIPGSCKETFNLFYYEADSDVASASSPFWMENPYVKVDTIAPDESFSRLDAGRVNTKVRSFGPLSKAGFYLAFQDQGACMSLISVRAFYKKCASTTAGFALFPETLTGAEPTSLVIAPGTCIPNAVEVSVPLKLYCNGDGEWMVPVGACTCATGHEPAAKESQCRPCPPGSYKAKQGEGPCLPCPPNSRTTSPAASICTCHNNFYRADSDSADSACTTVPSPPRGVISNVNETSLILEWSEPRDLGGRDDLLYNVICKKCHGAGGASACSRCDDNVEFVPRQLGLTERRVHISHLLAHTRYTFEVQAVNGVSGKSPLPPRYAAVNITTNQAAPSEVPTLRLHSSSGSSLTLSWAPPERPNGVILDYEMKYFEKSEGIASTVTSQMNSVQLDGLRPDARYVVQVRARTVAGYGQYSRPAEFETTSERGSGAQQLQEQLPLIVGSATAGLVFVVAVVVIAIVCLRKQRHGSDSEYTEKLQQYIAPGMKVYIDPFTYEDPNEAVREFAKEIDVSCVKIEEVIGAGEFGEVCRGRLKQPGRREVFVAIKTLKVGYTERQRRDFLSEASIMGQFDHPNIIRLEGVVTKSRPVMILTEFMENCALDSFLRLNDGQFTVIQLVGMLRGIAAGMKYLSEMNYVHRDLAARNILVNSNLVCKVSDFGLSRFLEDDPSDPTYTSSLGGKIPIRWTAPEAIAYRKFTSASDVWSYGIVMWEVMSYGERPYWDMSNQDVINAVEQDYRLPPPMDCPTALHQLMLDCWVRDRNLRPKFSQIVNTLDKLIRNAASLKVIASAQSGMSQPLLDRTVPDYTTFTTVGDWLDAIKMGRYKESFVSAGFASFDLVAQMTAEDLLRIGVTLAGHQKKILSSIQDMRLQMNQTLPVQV"}, "[6]": {"target": "LRRK2 (human) (UniProt Q5S007)"}, "[7]": {"target": "PKMYT1 (human) (UniProt Q99640)"}, "[8]": {"target": "ITK (human) (UniProt Q08881)"}, "[9]": {"target": "PTK2B (human) (UniProt Q14289)", "sequence (Q14289 whole entry, looked up)": "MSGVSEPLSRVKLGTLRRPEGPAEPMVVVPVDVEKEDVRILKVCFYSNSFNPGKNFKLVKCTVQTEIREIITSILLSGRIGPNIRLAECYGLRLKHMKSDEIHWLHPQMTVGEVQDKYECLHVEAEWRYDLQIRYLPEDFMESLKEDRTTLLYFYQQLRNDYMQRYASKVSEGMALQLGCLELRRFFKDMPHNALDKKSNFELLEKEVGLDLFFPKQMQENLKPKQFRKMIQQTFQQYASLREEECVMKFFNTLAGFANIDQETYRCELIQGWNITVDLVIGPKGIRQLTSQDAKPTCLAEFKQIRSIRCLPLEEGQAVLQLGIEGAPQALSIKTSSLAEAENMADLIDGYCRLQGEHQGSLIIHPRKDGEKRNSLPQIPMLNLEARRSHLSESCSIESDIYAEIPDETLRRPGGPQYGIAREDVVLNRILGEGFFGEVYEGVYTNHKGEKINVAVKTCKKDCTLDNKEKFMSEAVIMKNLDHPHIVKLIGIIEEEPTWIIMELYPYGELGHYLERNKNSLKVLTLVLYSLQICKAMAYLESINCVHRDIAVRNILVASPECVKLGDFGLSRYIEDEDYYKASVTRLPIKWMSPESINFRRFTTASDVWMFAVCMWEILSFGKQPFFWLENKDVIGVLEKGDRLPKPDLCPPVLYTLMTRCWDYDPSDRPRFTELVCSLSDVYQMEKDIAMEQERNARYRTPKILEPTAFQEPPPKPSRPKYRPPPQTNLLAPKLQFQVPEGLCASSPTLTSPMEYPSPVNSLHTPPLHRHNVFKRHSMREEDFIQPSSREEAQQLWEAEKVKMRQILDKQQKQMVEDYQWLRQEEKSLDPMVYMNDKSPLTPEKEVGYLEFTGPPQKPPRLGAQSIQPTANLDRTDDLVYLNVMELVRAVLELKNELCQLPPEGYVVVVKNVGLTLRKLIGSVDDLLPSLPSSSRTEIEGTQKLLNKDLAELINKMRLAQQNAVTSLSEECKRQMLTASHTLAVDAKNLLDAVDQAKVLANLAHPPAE"}, "[10]": {"target": "CHEK1 (human) (UniProt O14757)"}, "[11]": {"target": "MAP3K13 (human) (UniProt O43283)"}, "[12]": {"target": "EPHB1 (human) (UniProt P54762)", "sequence (P54762 whole entry, looked up)": "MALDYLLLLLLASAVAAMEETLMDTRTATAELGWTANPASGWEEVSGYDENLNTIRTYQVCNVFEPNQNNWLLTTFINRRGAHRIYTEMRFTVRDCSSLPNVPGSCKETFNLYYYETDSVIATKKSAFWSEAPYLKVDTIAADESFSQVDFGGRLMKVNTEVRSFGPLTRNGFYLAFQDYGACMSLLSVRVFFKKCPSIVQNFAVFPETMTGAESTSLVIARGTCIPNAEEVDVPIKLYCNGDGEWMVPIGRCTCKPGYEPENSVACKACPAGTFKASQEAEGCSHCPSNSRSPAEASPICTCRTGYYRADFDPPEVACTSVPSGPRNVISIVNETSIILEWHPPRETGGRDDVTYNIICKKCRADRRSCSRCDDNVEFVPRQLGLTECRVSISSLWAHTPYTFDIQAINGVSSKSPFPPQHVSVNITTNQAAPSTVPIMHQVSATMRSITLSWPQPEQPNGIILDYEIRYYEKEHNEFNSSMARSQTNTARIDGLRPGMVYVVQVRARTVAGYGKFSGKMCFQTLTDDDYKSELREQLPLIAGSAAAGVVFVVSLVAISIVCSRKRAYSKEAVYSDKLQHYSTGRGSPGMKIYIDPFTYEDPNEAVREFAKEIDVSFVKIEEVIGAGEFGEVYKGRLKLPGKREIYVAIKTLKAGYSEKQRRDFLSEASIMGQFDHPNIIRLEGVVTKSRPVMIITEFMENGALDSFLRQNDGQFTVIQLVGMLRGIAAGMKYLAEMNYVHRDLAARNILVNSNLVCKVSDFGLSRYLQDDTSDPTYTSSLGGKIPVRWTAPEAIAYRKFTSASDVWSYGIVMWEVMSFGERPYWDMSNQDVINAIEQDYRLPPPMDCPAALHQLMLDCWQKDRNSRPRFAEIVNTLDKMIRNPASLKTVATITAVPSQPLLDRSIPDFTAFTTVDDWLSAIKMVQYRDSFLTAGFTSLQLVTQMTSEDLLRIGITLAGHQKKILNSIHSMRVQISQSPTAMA"}, "[13]": {"target": "SYK (human) (UniProt P43405)"}, "[14]": {"target": "WEE1 (human) (UniProt P30291)"}, "[15]": {"target": "EPHB4 (human) (UniProt P54760)"}, "[16]": {"target": "CDK11B (human) (UniProt P21127)"}, "[17]": {"target": "PRKG1 (human) (UniProt Q13976)"}, "[18]": {"target": "TNK1 (human) (UniProt Q13470)"}, "[19]": {"target": "PHKG1 (human) (UniProt Q16816)"}, "[20]": {"target": "CDK17 (human) (UniProt Q00537)"}, "[21]": {"target": "DDR2 (human) (UniProt Q16832)"}, "[22]": {"target": "KDR (human) (UniProt P35968)"}, "[23]": {"target": "DDR1 (human) (UniProt Q08345)"}, "[24]": {"target": "IRAK4 (human) (UniProt Q9NWZ3)", "sequence (Q9NWZ3 whole entry, looked up)": "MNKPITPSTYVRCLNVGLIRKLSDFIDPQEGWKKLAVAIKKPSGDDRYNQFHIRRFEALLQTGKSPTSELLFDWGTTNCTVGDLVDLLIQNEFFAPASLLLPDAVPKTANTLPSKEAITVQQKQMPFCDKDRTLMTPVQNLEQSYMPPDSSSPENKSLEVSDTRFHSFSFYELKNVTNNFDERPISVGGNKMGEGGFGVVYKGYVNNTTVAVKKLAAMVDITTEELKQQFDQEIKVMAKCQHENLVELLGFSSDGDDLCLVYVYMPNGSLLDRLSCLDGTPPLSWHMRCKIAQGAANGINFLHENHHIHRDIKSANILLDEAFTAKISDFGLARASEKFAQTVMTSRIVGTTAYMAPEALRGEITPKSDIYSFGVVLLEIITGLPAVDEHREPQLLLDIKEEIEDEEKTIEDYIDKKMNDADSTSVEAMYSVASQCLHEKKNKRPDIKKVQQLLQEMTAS"}, "[25]": {"target": "MYLK4 (human) (UniProt Q86YV6)", "sequence (Q86YV6 whole entry, looked up)": "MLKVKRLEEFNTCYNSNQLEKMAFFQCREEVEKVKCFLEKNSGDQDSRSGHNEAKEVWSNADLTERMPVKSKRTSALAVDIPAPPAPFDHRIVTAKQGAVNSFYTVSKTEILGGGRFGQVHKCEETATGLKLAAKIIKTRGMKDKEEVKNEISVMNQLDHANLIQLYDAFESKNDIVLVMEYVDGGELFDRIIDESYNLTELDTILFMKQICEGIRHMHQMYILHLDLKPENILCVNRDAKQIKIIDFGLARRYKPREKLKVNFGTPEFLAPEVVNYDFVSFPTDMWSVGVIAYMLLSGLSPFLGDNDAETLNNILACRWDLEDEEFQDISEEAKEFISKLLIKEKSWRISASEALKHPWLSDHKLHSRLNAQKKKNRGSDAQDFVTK"}, "[26]": {"target": "BMP2K (human) (UniProt Q9NSY1)"}, "[27]": {"target": "CDK8 (human) (UniProt P49336)", "sequence (P49336 whole entry, looked up)": "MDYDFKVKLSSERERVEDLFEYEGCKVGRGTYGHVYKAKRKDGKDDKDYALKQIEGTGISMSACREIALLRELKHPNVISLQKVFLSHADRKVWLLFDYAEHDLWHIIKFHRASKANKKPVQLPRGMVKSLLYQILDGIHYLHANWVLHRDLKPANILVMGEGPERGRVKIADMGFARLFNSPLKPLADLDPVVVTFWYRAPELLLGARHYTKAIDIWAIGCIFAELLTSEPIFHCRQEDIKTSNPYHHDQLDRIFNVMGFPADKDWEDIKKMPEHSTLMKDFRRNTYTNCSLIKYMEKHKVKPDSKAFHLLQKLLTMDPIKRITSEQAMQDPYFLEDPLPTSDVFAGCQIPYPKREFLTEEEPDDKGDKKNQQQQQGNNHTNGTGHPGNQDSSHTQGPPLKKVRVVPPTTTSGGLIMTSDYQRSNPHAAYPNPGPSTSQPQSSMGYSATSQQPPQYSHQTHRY"}, "[28]": {"target": "DAPK3 (human) (UniProt O43293)"}, "[29]": {"tested_on": "FLT3 (human), P36888 [ITD]"}, "[30]": {"target": "RPS6KA1 KD1 (human) (UniProt Q15418)"}, "[31]": {"target": "HCK (human) (UniProt P08631)"}, "[32]": {"target": "LIMK2 (human) (UniProt P53671)"}, "[33]": {"target": "NUAK1 (human) (UniProt O60285)"}, "[34]": {"target": "PDPK1 (human) (UniProt O15530)"}, "[35]": {"target": "PAK7 (human) (UniProt Q9P286)", "sequence (Q9P286 whole entry, looked up)": "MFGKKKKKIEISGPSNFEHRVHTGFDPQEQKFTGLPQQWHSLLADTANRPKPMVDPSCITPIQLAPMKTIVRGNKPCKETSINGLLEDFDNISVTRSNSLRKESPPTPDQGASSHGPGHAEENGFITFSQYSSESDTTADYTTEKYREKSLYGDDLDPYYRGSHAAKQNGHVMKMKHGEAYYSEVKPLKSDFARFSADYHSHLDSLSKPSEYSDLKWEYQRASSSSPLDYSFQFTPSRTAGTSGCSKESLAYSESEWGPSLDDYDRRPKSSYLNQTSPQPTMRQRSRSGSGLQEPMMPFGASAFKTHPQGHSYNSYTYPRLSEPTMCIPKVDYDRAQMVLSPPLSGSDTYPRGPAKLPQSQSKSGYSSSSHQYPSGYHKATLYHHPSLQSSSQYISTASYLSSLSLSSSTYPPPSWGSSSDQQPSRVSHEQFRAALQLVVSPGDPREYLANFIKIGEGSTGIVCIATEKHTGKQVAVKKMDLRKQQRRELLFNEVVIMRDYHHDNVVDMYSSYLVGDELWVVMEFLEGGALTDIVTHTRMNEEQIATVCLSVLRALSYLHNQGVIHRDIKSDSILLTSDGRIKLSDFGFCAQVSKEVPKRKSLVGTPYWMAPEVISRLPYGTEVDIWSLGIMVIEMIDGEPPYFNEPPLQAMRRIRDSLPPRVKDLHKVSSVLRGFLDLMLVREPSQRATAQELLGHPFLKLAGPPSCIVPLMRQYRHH"}, "[36]": {"target": "PIP5K1C (human) (UniProt O60331)"}, "[37]": {"target": "MATK (human) (UniProt P42679)"}, "[38]": {"target": "MAPK9 (human) (UniProt P45984)"}, "[39]": {"target": "BRAF (human) (UniProt P15056)"}, "[40]": {"target": "TEC (human) (UniProt P42680)"}, "[41]": {"target": "MAP2K1 (human) (UniProt Q02750)"}, "[42]": {"target": "CLK2 (human) (UniProt P49760)"}}}
{"smiles": "Cn1c2ccccc2c2c3c(c4c5ccccc5n(CCC#N)c4c21)CNC3=O", "values": [{"measurement": "kinase still bound, per cent of control", "setting": "[1]", "result": 96, "unit": "%"}, {"measurement": "kinase still bound, per cent of control", "setting": "[2]", "result": 74, "unit": "%"}, {"measurement": "kinase still bound, per cent of control", "setting": "[3]", "result": 20, "unit": "%"}, {"measurement": "kinase still bound, per cent of control", "setting": "[4]", "result": 36, "unit": "%"}, {"measurement": "kinase still bound, per cent of control", "setting": "[5]", "result": 85, "unit": "%"}, {"measurement": "kinase still bound, per cent of control", "setting": "[6]", "result": 19, "unit": "%"}, {"measurement": "kinase still bound, per cent of control", "setting": "[7]", "result": 100, "unit": "%"}, {"measurement": "kinase still bound, per cent of control", "setting": "[8]", "result": 40, "unit": "%"}, {"measurement": "kinase still bound, per cent of control", "setting": "[9]", "result": 19, "unit": "%"}, {"measurement": "kinase still bound, per cent of control", "setting": "[10]", "result": 0.2, "unit": "%"}, {"measurement": "kinase still bound, per cent of control", "setting": "[11]", "result": 33, "unit": "%"}, {"measurement": "kinase still bound, per cent of control", "setting": "[12]", "result": 97, "unit": "%"}, {"measurement": "kinase still bound, per cent of control", "setting": "[13]", "result": 2.4, "unit": "%"}, {"measurement": "kinase still bound, per cent of control", "setting": "[14]", "result": 100, "unit": "%"}, {"measurement": "kinase still bound, per cent of control", "setting": "[15]", "result": 100, "unit": "%"}, {"measurement": "kinase still bound, per cent of control", "setting": "[16]", "result": 100, "unit": "%"}, {"measurement": "kinase still bound, per cent of control", "setting": "[17]", "result": 67, "unit": "%"}, {"measurement": "kinase still bound, per cent of control", "setting": "[18]", "result": 2, "unit": "%"}, {"measurement": "kinase still bound, per cent of control", "setting": "[19]", "result": 0.1, "unit": "%"}, {"measurement": "kinase still bound, per cent of control", "setting": "[20]", "result": 100, "unit": "%"}, {"measurement": "kinase still bound, per cent of control", "setting": "[21]", "result": 100, "unit": "%"}, {"measurement": "kinase still bound, per cent of control", "setting": "[22]", "result": 82, "unit": "%"}, {"measurement": "kinase still bound, per cent of control", "setting": "[23]", "result": 100, "unit": "%"}, {"measurement": "kinase still bound, per cent of control", "setting": "[24]", "result": 0.2, "unit": "%"}, {"measurement": "kinase still bound, per cent of control", "setting": "[25]", "result": 17, "unit": "%"}, {"measurement": "kinase still bound, per cent of control", "setting": "[26]", "result": 3.4, "unit": "%"}, {"measurement": "kinase still bound, per cent of control", "setting": "[27]", "result": 85, "unit": "%"}, {"measurement": "kinase still bound, per cent of control", "setting": "[28]", "result": 75, "unit": "%"}, {"measurement": "kinase still bound, per cent of control", "setting": "[29]", "result": 0.2, "unit": "%"}, {"measurement": "kinase still bound, per cent of control", "setting": "[30]", "result": 36, "unit": "%"}, {"measurement": "kinase still bound, per cent of control", "setting": "[31]", "result": 100, "unit": "%"}, {"measurement": "kinase still bound, per cent of control", "setting": "[32]", "result": 100, "unit": "%"}, {"measurement": "kinase still bound, per cent of control", "setting": "[33]", "result": 89, "unit": "%"}, {"measurement": "kinase still bound, per cent of control", "setting": "[34]", "result": 41, "unit": "%"}, {"measurement": "kinase still bound, per cent of control", "setting": "[35]", "result": 3.4, "unit": "%"}, {"measurement": "kinase still bound, per cent of control", "setting": "[36]", "result": 100, "unit": "%"}, {"measurement": "kinase still bound, per cent of control", "setting": "[37]", "result": 67, "unit": "%"}, {"measurement": "kinase still bound, per cent of control", "setting": "[38]", "result": 46, "unit": "%"}, {"measurement": "kinase still bound, per cent of control", "setting": "[39]", "result": 100, "unit": "%"}, {"measurement": "kinase still bound, per cent of control", "setting": "[40]", "result": 92, "unit": "%"}, {"measurement": "kinase still bound, per cent of control", "setting": "[41]", "result": 71, "unit": "%"}, {"measurement": "kinase still bound, per cent of control", "setting": "[42]", "result": 38, "unit": "%"}]}
